In this assay the test system is C. formosanus workers. Briefly: Repellency, choice of treated and untreated filter paper in three-chambered containers. In kind it is in vivo, Coptotermes formosanus. The conditions noted are these: for concentration of strong repellency and significant reduction in feeding activity: alternative food choice, 15 days. The source says: Thirty-five transparent plastic containers (17.7 cm×8.0 cm×4.0 cm), Pioneer Packaging Co., North Dixon, Ky.), each with three chambers (8.0 cm×5.75 cm×4.0 cm), were used. An opening (3.5 cm×0.3 cm) was made at the bottom of each of the two inner walls, connecting the three chambers and allowing termites to move between the chambers. For each container, filter papers (Whatman #2, 5.5 cm diameter) were placed in the two lateral side chambers. For each treatment, five replicates (five containers) were used; for each replicate, one side chamber was marked “treated” and the other side chamber marked “untreated.”
A stock solution of 2′-acetonaphthone was prepared by dissolving 0.952 mg (AI) in 5 ml ethanol (190.4 mg/l). One-half of this solution was used to apply 500 μl to filter paper placed in the “treated” chamber to test the highest concentration of 2′-acetonaphthone, 4.0 μg/cm^2. The remaining volume, 2.5 ml, was diluted by adding an equal volume of ethanol. One-half of this new solution was used to add 500 μl to each of 5 filter papers in a “treated” chamber to achieve a concentration of 2.0 μg/cm^2. This dilution and application step was repeated four more times to make four additional concentrations equivalent to 1.0, 0.50, 0.250 and 0.125 μg/cm^2. Filter papers placed in the “untreated” chambers were left untreated. Five containers served as replicates for each tested concentration. Five containers served as controls, in which filter paper in the “treated” chamber received 500 μl ethanol, and that in the “untreated” chamber was left untreated.
Containers were kept at ambient conditons overnight for ethanol evaporation, and then all filter papers were weighed. In the middle chamber of all containers, 55 g wetted sand (50 g sand mixed with 5 ml DDH2O) was added, then packed and leveled to allow for clear visualization of tunnels along the bottom of the containers. Treated and untreated filter papers were wetted with 250 μl DDH2O. Then 100 workers and 5 soldiers from colony E were released onto the surface of the sand in the middle chamber.
The containers were covered and incubated for 12 days at 26.6° C. and 70% RH, and checked every 2 days for moisture content. The number of termites in the two lateral chambers was recorded daily for 3 days. On day 12, the bottom of each container was scanned (ScanJet 4c, Hewlett-Packard, Palo Alto, Calif.) and the images printed to measure and calculate the areas of tunnels. The experiment was ended on day 12, and the number of living termites in each container counted. The treated and untreated filter papers were gently cleaned using deionized water and a small brush to remove all debris. Filter papers were then oven dried at 60° C. for 3 h, and re-weighed to calculate food consumption.
A second trial was conducted with higher concentrations of 2′-acetonaphthone (5 to 40 μ/cm^2) using the above technique with some modifications. A stock solution (1900 mg/l) was prepared by dissolving 0.038 g (AI) 2′-acetonaphthone in 20 ml ethanol. Dilutions were made by taking 6.0, 4.5, 3.0, 1.5, and 0.75 ml from the original stock, and adjusting the volume of each to 6.0 ml with ethanol to yield the following concentrations: 1900.0, 1425.0, 950.0, 475.0, 237.5 mg/l, respectively. For each concentration, ten containers were used, with the filter paper in the “treated” chamber coated with 500 μl of the tested concentration. Filter papers placed in the “untreated” chamber were left untreated. For controls, ten containers were similarly handled except that the filter paper in the “treated” chamber was coated with 500 μl ethanol. The solvent was allowed to evaporate overnight at ambient conditions. The final concentrations of 2′-acetonaphthone on the filter papers were 5, 10, 20, 30, and 40 μg/cm^2.
The ten containers for each concentration were equally divided into two equal sub-groups. […]

With `CC(=O)c1ccc2ccccc2c1` [2′-acetonaphthone], the “concentration of strong repellency and significant reduction in feeding activity” value is given as at least 20 μg/cm^2. Further, the “concentration of strong repellency and significant reduction in feeding activity” value (listed as 2′-Acetonaphthone) was at least 20.0 μg/cm^2. Besides, the “concentration of strong repellency and significant reduction in feeding activity” value (listed as 2′-aceetonaphthone) is recorded as at least 20.0 μg/cm^2. Besides, the “concentration of strong repellency and significant reduction in feeding activity” value (listed as 2′-acetonapththone) was at least 20 μg/cm^2. The “Survival rates after 15 days exposure” value (concentrations ≧20 μg/cm^2, control 63.0%, difference not significant) was 45.0-51.2%. Besides, the “concentration with significant differences in termite distribution between the chambers” value (day 8) is listed as at least 5.0 μg/cm^2. Also, the “concentration at which repellent” value (untreated food source available) is 5 μg/cm^2 filter paper. The “concentration with significantly more termites in the untreated chamber than in the treated chamber” value (within the first 3 days) was at least 10.0 μg/cm^2.

Values taken from patent publication US7351744B2, “Naphthalene derivatives as termite repellents and toxicants” (Board of Supervisors of Louisiana State University and …, priority 2003, dated 2008).
